{"source": "patent US20090214500A1", "about": "“PREVENTION AND TREATMENT OF OSTEOCHONDROSIS IN ANIMALS AND HUMANS” (U.S. Borax Inc., priority 2005, published 2009)", "key": {"Duroc and Yorkshire pigs": {"tested_on": "Duroc and Yorkshire pigs", "test": "Boron supplementation and OC-associated lameness in swine (Example 1)", "type": "in vivo, pig", "method": "The basal diet consisted of commercial corn-soy diet containing 10 ppm boron.\nTest diet group B was fed a basal diet plus 25 mg/kg boron as sodium borate decahydrate (borax). Test diet group A was fed a basal diet plus 25 mg/kg boron as sodium borate decahydrate (borax) and 250 mg/kg ascorbic acid.\nPigs were weighed at the beginning of the study, 4 weeks later and every 3 weeks until the end of the study. Animals were scored for soundness on a 5-point scale at each weighing. (Five-point scale: 1=no soundness defects; 2=minor soundness issues but still sound enough for retention as breeding animal; 3=not sound enough for retention for breeding but still marketable; 4=unsound, likely to be rejected at slaughter; 5=severely lame, requiring euthanasia for humane reasons.) Grading was done by the caretaker and the investigator at all weighing times. An experienced independent treatment-blind rater also evaluated the soundness of each animal and the ratings he provided were compared with the ratings of the caretaker and investigator by use of Cohen's Kappa test.\nThe animals were housed in a modern curtain sided barn with deep straw bedding, with ad libitum access to feed and water. Waterers and feeders were on a concrete pad but the remainder of the flooring was deep straw over a ground limestone and sand base. Floor space allowances exceeded the recommendations of the Guide for the Care and Use of Agricultural Animals in Agricultural Research and Teaching, First Revised Edition, 1999. Federation of Animal Science Societies. Savoy, Ill.\nThe basal diet (no boron supplemented) was analysed and found to contain boron at the rate of 10 ppm which is typical for a corn-soybean meal based diet.\nAt the end of the study the pigs were transported to a laboratory where they were euthanized and necropsied. […]\nAt necropsy, samples of liver, heart, kidney, fat, skeletal muscle, proximal tibia, blood, and the rostral snout were retained and frozen at −40° C. prior to chemical analysis. All joints of the axial skeleton were evaluated for the presence of gross lesions of osteochondrosis and graded on a 5 point scale. […]\nMean joint lesion scores, growth rate and soundness scores by treatment and by factors boron and ascorbate were compared using an analysis of variance and t-test as appropriate. Soundness scores were dichotomised into binary categorical variables for lameness (soundness score>2) and for absence of defects (soundness<2), and the binary variables analysed by chi-square and logistic regression.\nTissue specimens stained with H&E were examined microscopically for the presence of lesions of osteochondrosis. […] Each tissue section was scored by a treatment-blind board-certified pathologist."}, "sows [1]": {"tested_on": "sows", "test": "Sow and litter trial in a commercial swine operation during a PRRSV outbreak", "type": "in vivo, pig", "settings": "sows given oral 1 mg boron per pound BW per day", "method": "To test the effect of boron on sows and their litters, a trial was established in a large commercial swine operation during an outbreak of porcine viral reproductive and respiratory disease (PRRSV). Boron was administered orally to a group of 51 sows individually housed in crates at the rate of 1 mg boron per pound BW per day beginning 1 week prior to farrowing and continuing until the piglets were weaned at 14 days of age. […] Boron treatment was supplied as a single daily dosing and was discontinued at weaning. All sows were fed a standard commercial sow diet."}, "[2]": {"type": "in vivo", "settings": "one pig of about 85 pounds kept on boron 50 ppm plus ascorbate 125 ppm", "method": "(§1) Boron was added to the diet of sows at 1 mg/kg body weight as boric acid. […] Among a group of 95 piglets the birth to weaning mortality was 2 piglets. The usual mortality for this farm was about 5 to 7%. These piglets remained on boron 50 ppm plus ascorbate 125 ppm. One pig was euthanized and examined at a weight of about 85 pounds. […] All bones of the appendicular skeleton were sectioned on the band saw."}, "pigs [3]": {"tested_on": "pigs", "test": "3-NPB with or without supplemental boron in pigs, lameness and joint lesions", "settings": "for Clinical Lameness Score Normal, count of pigs / Clinical Lameness Score Visible Lameness, count of pigs: 5 pigs", "protocol": "The pigs were evaluated for lameness daily and euthanized on day 13 and the joints and other organs were examined."}, "sows [4]": {"tested_on": "sows", "test": "Preliminary pilot study, oral boron supplement to gestating and lactating sows", "settings": "sows given oral 1 mg boron per kg body weight; first 600 pigs, preliminary analysis", "protocol": "(§2) Sows were fed a standard corn-soy diet. Half of the sows received an oral administration of a boron supplement to provide 1 mg boron per kg body weight."}, "sows [5]": {"tested_on": "sows", "test": "Observation in sows fed 50 ppm supplemental boron in late gestation and early lactation", "settings": "sow diets with 50 ppm supplemental boron", "protocol": "as §2"}, "sows [6]": {"tested_on": "sows", "type": "in vivo", "method": "as §1"}, "pigs [7]": {"tested_on": "pigs", "settings": "50 ppm boron as boric acid", "from_the_text": "An Iowa farm treated a group of about 100 pigs with 50 ppm boron as boric acid."}, "[8]": {"settings": "50 ppm added B in diet, 28 days, 12 pens"}, "[9]": {"settings": "supplemental boron 50 mg/kg vs 0, p<0.05"}, "[10]": {"settings": "boron supplementation 50 ppm together with 3-NPB 1 gram daily × 10 days"}, "[11]": {"settings": "boron supplementation 50 ppm, 3-NPB none"}}, "note": "“Also recorded” adds a separate entry of the source.", "data": [{"molecule": "[B]", "note": "[Boron]", "values": [{"measurement": "joint health compared with basal diet with no supplemental boron (FIG. 1)", "setting": "Duroc and Yorkshire pigs; basal diet plus 25 mg/kg boron as sodium borate decahydrate (borax), with or without 250 mg/kg ascorbic acid", "value": "healthier joints"}, {"measurement": "incidence of osteochondrosis-associated lameness", "setting": "Duroc and Yorkshire pigs; growing swine, 25 mg/kg boron as borax in feed", "value": "effective in reduction of the incidence of osteochondrosis-associated lameness"}, {"measurement": "occurrence of osteochondrosis (OC)", "setting": "Duroc and Yorkshire pigs; pigs, supplemental boron 25 ppm to 50 ppm in feed, FIGS. 1, 3 and 4", "value": "reduction in the occurrence of osteochondrosis; also recorded: significant reduction in the occurrence of OC"}, {"measurement": "soundness scores / lameness associated with early rapid growth (FIG. 3)", "setting": "Duroc and Yorkshire pigs; rapidly growing swine, 25 mg/kg boron as borax in feed, 25 mg/kg", "value": "useful in cartilage protection and prevention of lameness; also recorded: reduction of soundness scores associated with early growth"}, {"measurement": "effect on litter size at birth", "setting": "sows [1]", "value": "no effects"}, {"measurement": "effect on piglet birth weight", "setting": "sows [1]", "value": "no effects"}, {"measurement": "likelihood to conceive relative to control sows", "setting": "sows [1]", "value": 1.2, "unit": "times"}, {"measurement": "return to estrus, average days quicker than control sows", "setting": "sows [1]", "value": 1.6, "unit": "days"}, {"measurement": "piglet mortality", "setting": "sows [1]; from 1 week prior to farrowing until weaning", "value": 15.2, "unit": "%"}, {"measurement": "piglet weight at 12 days of age", "setting": "sows [1]; from 1 week prior to farrowing until weaning at 14 days", "value": 9.01, "unit": "lbs"}, {"measurement": "bone mineralization at necropsy", "setting": "[2]", "value": "excellent mineralization"}, {"measurement": "joint abnormalities at necropsy", "setting": "[2]", "value": "No abnormalities were observed in any of the joints"}, {"measurement": "Average daily gain (grams per day)", "setting": "crossbred pigs; [8]", "value": 549, "unit": "grams per day"}, {"measurement": "Avg. daily feed intake", "setting": "crossbred pigs; [8]", "value": 1270}, {"measurement": "Feed Conversion Ratio (feed/gain)", "setting": "crossbred pigs; [8]", "value": 2.32, "unit": "feed/gain"}, {"measurement": "reduction of phosphorus excretion per unit of production", "setting": "crossbred pigs; boron added to the diet, compared with no added boron", "value": 15, "unit": "%"}, {"measurement": "effect on average daily gain", "setting": "crossbred pigs; [9]", "value": "increased"}, {"measurement": "effect on fecal phosphorus excretion per unit of growth", "setting": "crossbred pigs; [9]", "value": "reduced"}, {"measurement": "effect on feed conversion ratio", "setting": "crossbred pigs; [9]", "value": "improved"}, {"measurement": "effect on phosphorus digestibility", "setting": "crossbred pigs; [9]", "value": "improved"}, {"measurement": "effect on daily feed intake", "setting": "crossbred pigs; supplemental boron 50 mg/kg vs 0, p>0.20", "value": "not significantly modified"}, {"measurement": "Clinical Lameness Score Normal, count of pigs", "setting": "pigs [3]; [10]", "value": 4}, {"measurement": "Clinical Lameness Score Visible Lameness, count of pigs", "setting": "pigs [3]; [10]", "value": 1}, {"measurement": "Clinical Lameness Score Normal, count of pigs", "setting": "pigs [3]; [11]", "value": 5}, {"measurement": "Clinical Lameness Score Visible Lameness, count of pigs", "setting": "pigs [3]; [11]", "value": 0}, {"measurement": "effect of supplemental boron in preventing the lameness induced by 3-NPB", "setting": "pigs [3]; chi-square analysis", "value": "significant effect; also recorded: could be prevented"}, {"measurement": "pigs that developed lameness", "setting": "pigs [3]; supplemental boron 50 ppm when 3-NPB was provided", "value": "one in 5"}, {"measurement": "prevalence and severity of osteochondrosis lesions in shoulder, stifle, hock and elbow joints", "setting": "pigs [3]; supplemental boron, no 3-NPB", "value": "lowest prevalence of lesions and the lowest severity"}, {"measurement": "piglet weight at 12 days of age", "setting": "sows [4]", "value": 8.5, "unit": "pounds"}, {"measurement": "pre-weaning mortality", "setting": "sows [4]", "value": 16, "unit": "%"}, {"measurement": "piglet quality as assessed by uniformity, growth, and general thrift", "setting": "sows [5]", "value": "improved"}, {"measurement": "pre-weaning piglet mortality", "setting": "sows [5]", "value": "reduced"}]}, {"molecule": "OB(O)O", "note": "[boric acid]", "values": [{"measurement": "birth to weaning mortality", "setting": "sows [6]; pig, in vivo", "value": 2, "unit": "piglets"}, {"measurement": "outcome of three noticeably and seriously lame sows", "setting": "sows [6]; sows, boron 1 mg/kg body weight as boric acid in diet", "value": "became perfectly sound"}, {"measurement": "growth rate", "setting": "pigs [7]", "value": "excellent growth rate"}, {"measurement": "lameness/unsoundness rate in the test group", "setting": "pigs [7]; estimated previous rate about 25 to 30%", "value": "zero"}, {"measurement": "pigs developing signs of lameness or unsoundness", "setting": "pigs [7]; about 100 pigs", "value": "None"}]}]}
